Test results: patent US20230157998A1, “Methods of Inhibiting SARS-CoV-2 Replication and Treating Corona Virus Disease 2019” (Pfizer Inc., priority 2020, published 2023)
Values after ≈ are worked out from the molar mass of the structure shown. Values joined by “and” are separate entries in the source; they are usually repeats but may differ in a detail not shown here. Equal entries are not always repeated. Where two headings read alike, the source gives them in different places.

How the values were obtained:
[1] = Assay over 7 days, 80 mg/mL SBE-β-CD with PEG400/ethanol (F10); settings: ~3:1 PEG400:ethanol (1.5-6.0% v/v), 2, 4, 6 and 8 mg/mL PF-00835231, ambient
[2] = Intravenous pharmacokinetics; settings: rat, dog, monkey, in vivo, 2 mg/kg
physchem [3] = settings: 25 °C, aqueous with cosolvent or surfactant or cyclodextrin, thermodynamic from solid
MRC-5 cells = test: Cytotoxicity in MRC-5 cells; settings: read-out: CC50 μM GeoMean; MRC-5, Efflux Inhibitor 0.5 μM
[4] = Cytotoxicity in MRC-5 cells; settings: human
SARS-CoV-2 USA-WA1/2020 [5] = test: In vitro drug efficacy in A549+ACE2 cells; type: cell-based
HKU1-CoV 3CLpro = HKU1-CoV 3CLpro (Human coronavirus HKU1, UniProt P0C6X2); test: FRET protease activity assay; type: biochemical; settings: Beta-CoV; [E]T 57 ± 1 nM
SARS-CoV-2 [6] = test: microbe, parasite or virus in culture
[7] = Saturated solubility in co-solvent/co-solvent/water mixtures (F3); settings: 25 °C, pH 5, aqueous buffer, thermodynamic from solid, PF-00835321 Saturated Solubility, pH 5, 5 mM citrate, PEG400 0.75, Ethanol […] v/v
SARS-CoV-2 USA-WA1/2020 [8] = test: microbe, parasite or virus in culture; type: cell-based
[9] = Ethanol […] v/v, 2 mg/mL at preparation
SARS-CoV-2 [10] = test: Antiviral activity in HeLa-ACE2 cells (viral protein detection); type: cell-based; settings: Severe acute respiratory syndrome coronavirus 2, compound alone
Human Elastase = Human Elastase (Homo sapiens, UniProt P08246); test: Protease panel; type: biochemical
physchem [11] = settings: organic solvent or mixture, thermodynamic from solid
CYP3A4/5 = settings: microsomes
[12] = Physical stability on storage of the 6 mg/mL formulation (F11); type: physicochemical; settings: 80 mg/mL SBE-β-CD, […] v/v ethanol, 3.4% v/v PEG400, 6 mg/mL PF-00835231
Description: To further assess the robustness of formulations prepared in Formulation Example F10, a single formulation was selected to scale-up for use in a stability study.
An additional 20 mL solution of 300 mg/mL SBE-β-CD was similarly prepared.
14.29 mL of the citrate buffer and SBE-β-CD stock solution was then added to two separate 20 mL scintillation vials. […] The drug product solutions were mixed overnight and filtered through a 0.2 um PVDF filter. 0.5 mL aliquots of drug product solutions were then filled into 4 mL vials, stoppered, crimped, and placed in temperature-controlled chambers at −20° C., 4° C., and 25° C.
Furthermore, if the solutions were supersaturated at room temperature, exposure to refrigerated or frozen storage temperatures should induce precipitation and cause a decrease in assay. […] (top), 4° C. (center), and 25° C. (bottom). For each condition, data from two separate samples is plotted and is shown with a linear fit to the data.

HCOV-229E = test: Antiviral activity in MRC-5 cells; type: cell-based; settings: lung cell lines (A549-ACE2 and MRC5)
SARS-CoV-2 [13] = test: Efficacious target concentration and human dose projection; settings: across a range of in vitro antiviral assays
Human Chymotrypsin = test: Protease panel; type: biochemical

Chain of HKU1-CoV 3CLpro (P0C6X2 3335-3637): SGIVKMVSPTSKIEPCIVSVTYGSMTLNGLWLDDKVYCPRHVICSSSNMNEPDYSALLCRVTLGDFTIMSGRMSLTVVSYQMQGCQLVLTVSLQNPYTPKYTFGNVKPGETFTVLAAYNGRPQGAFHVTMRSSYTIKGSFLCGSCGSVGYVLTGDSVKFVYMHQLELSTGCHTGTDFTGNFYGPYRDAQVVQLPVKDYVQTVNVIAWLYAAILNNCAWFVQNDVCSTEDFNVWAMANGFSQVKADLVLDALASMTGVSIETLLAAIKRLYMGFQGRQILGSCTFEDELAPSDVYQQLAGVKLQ
Chain of Human Elastase (P08246 30-247): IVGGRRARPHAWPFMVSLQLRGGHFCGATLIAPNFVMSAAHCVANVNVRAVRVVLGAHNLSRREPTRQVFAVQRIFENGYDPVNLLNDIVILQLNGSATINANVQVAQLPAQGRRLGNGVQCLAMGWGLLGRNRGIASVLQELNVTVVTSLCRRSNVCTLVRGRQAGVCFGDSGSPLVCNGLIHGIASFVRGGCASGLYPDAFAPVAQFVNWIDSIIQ

What does the source list for `COc1cccc2[nH]c(C(=O)N[C@@H](CC(C)C)C(=O)N[C@@H](C[C@@H]3CCNC3=O)C(=O)CO)cc12` [PF-00835231]?
assay values of filtered formulations over 7 days (FIG. 12) [1]: do not change over 7 days; half-life [2]: < 1.5 h; solubility (physchem [3]): 1700 µg/mL (≈ 3.6 mM); solubility at 48 h (physchem [3]): 1900 µg/mL (≈ 4.02 mM); solubility at 72 h (physchem [3]): 2000 µg/mL (≈ 4.23 mM); CC50 (MRC-5 cells): > 100 µM; CC50 [4]: > 100 µM; EC50 (SARS-CoV-2 USA-WA1/2020 [5]; Severe acute respiratory syndrome coronavirus 2, A549-ACE2, 24 h): 0.221 µM; EC90 (SARS-CoV-2 USA-WA1/2020 [5]; Severe acute respiratory syndrome coronavirus 2, A549-ACE2, 24 h, read-out: EC90): 0.734 µM; EC50 (SARS-CoV-2 USA-WA1/2020 [5]; Severe acute respiratory syndrome coronavirus 2, A549-ACE2, 48 h): 0.158 µM; EC90 (SARS-CoV-2 USA-WA1/2020 [5]; Severe acute respiratory syndrome coronavirus 2, A549-ACE2, 48 h, read-out: EC90): 0.439 µM; EC90 (SARS-CoV-2 USA-WA1/2020 [5]; Severe acute respiratory syndrome coronavirus 2, A549-ACE2, dose response assay in human lung carcinoma cells, read-out: average EC90): 0.44 µM; Ki (HKU1-CoV 3CLpro): 0.0009 ± 0.0002 µM; EC90 (SARS-CoV-2 [6]; Severe acute respiratory syndrome coronavirus 2, HeLa-ACE2, HELA-ACE2, remdesivir concentration 0): 0.433 µM; EC90 (SARS-CoV-2 [6]; Severe acute respiratory syndrome coronavirus 2, HeLa-ACE2, HELA-ACE2, remdesivir concentration 48 (nm in FIG. 5A legend)): 0.123 µM; EC90 (SARS-CoV-2 [6]; Severe acute respiratory syndrome coronavirus 2, HeLa-ACE2, HELA-ACE2, remdesivir concentration 95 (nm in FIG. 5A legend)): 0.0545 µM; EC90 (SARS-CoV-2 [6]; Severe acute respiratory syndrome coronavirus 2, HeLa-ACE2, HELA-ACE2, remdesivir concentration 190 (nm in FIG. 5A legend)): < 0.00078 µM; solubility at 48 h [7]: 100 µg/mL (≈ 0.212 mM); SARS-CoV-2 viral infectious titers in apical washes (SARS-CoV-2 USA-WA1/2020 [8]; 10 μM doses): viral titers below the limit of 366 detection at most time points; SARS-CoV-2 viral infectious titers in apical washes (SARS-CoV-2 USA-WA1/2020 [8]; 0.025, 0.5 or 10 μM in basolateral chamber, washes at 12-hour increments): potently inhibit SARS-CoV-2 titers in a dose-dependent manner; EC90 (SARS-CoV-2 USA-WA1/2020 [8]; Severe acute respiratory syndrome coronavirus 2, primary human airway epithelial model, antiviral time course, preliminary data, read-out: unbound EC90): < 0.5 µM; PF-00835231 Assay ([9]; HP-β-CD 0 mg/mL, order: PF-00835231, Ethanol, Buffer): 0.4 mg/mL; PF-00835231 Assay ([9]; HP-β-CD 15 mg/mL, order: PF-00835231, Ethanol, HP-β-CD with buffer): 1.9 mg/mL; PF-00835231 Assay ([9]; HP-β-CD 15 mg/mL, order: PF-00835231, HP-β-CD with buffer, Ethanol): 0.4 mg/mL; EC50 (SARS-CoV-2 [10]): 0.14 µM and 0.144 µM; EC90 (SARS-CoV-2 [10]): 0.4 µM and 0.398 µM; IC50 (Human Elastase): > 33.3 µM; solubility (physchem [11]): ≥ 200000 µg/mL; time dependent inhibition of CYP3A4/5 (CYP3A4/5): weak signal; assay values on storage at 4° C. and 25° C. (FIG. 13) [12]: consistent over the 30 day period tested; assay values on storage at −20° C. (FIG. 13) [12]: consistent over the 7 day period tested; difference in antiviral potency in the presence and absence of P-gp inhibitor (HCOV-229E): no significant difference in antiviral potency; Hill coefficient (m), slope of the dose response curve (SARS-CoV-2 [13]): 3; IC50 (Human Chymotrypsin): > 100 µM
